Reference: patent US20260109721A1, “IONIZABLE CATIONIC LIPIDS INCORPORATING SILICON: SYNTHESIS AND LNP FORMULATION” (priority 2023, published 2026)

Key:
HeLa cells = test: Transfection efficiency with Luciferase (SecNLuc) mRNA, Nano-Glo assay (Method A); format: cell-based; details: Luc mRNA, 24 h, luminescence; for Transfection 10 ng mRNA: 10 ng mRNA/well; for Transfection 50 ng mRNA: 50 ng mRNA/well; for Transfection 100 ng mRNA: 100 ng mRNA/well
In short: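 LNPs formulated by Method A carried SecNLuc mRNA at 100, 50 or 10 ng/well onto HeLa cells at 80% confluence, in triplicate. After 24 h, secreted NanoLuc in the medium was measured by Nano-Glo luminescence about 3 min after reagent addition.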

HepG2 cell line = test: In vitro toxicity study on HepG2 cell line (resazurin, viability and IC50); format: cell-based, human; details: for IC50: Homo sapiens, lipid toxicity, HepG2, 48 h post-treatment, 6.25-800 μM, read-out: IC50 value, μM (on HepG2 cell)
In short: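 HepG2 cells (1000/well) were treated after overnight incubation with lipids at 6.25–800 μM for 48 h. Viability was read by resazurin fluorescence (530/580 nm) after 5 h at 37 °C, relative to ethanol vehicle controls. IC50 values came from concentration-response curves.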

[1] = HepG2 cells, 6.25 μM lipid, 48 h post-treatment, resazurin, relative to ethanol vehicle controls
[2] = HepG2 cells, 12.5 μM lipid, 48 h post-treatment, resazurin, relative to ethanol vehicle controls
[3] = HepG2 cells, 25 μM lipid, 48 h post-treatment, resazurin, relative to ethanol vehicle controls
[4] = HepG2 cells, 50 μM lipid, 48 h post-treatment, resazurin, relative to ethanol vehicle controls
[5] = HepG2 cells, 100 μM lipid, 48 h post-treatment, resazurin, relative to ethanol vehicle controls
[6] = HepG2 cells, 200 μM lipid, 48 h post-treatment, resazurin, relative to ethanol vehicle controls
[7] = HepG2 cells, 400 μM lipid, 48 h post-treatment, resazurin, relative to ethanol vehicle controls
[8] = HepG2 cells, 800 μM lipid, 48 h post-treatment, resazurin, relative to ethanol vehicle controls

| SMILES | Transfection 10 ng mRNA (HeLa cells) | Transfection 50 ng mRNA (HeLa cells) | Transfection 100 ng mRNA (HeLa cells) | Viability (%) at different lipid concentrations, mean (HepG2 cell line; [1]) [%] | Viability (%) at different lipid concentrations, mean (HepG2 cell line; [2]) [%] | Viability (%) at different lipid concentrations, mean (HepG2 cell line; [3]) [%] | Viability (%) at different lipid concentrations, mean (HepG2 cell line; [4]) [%] | Viability (%) at different lipid concentrations, mean (HepG2 cell line; [5]) [%] | Viability (%) at different lipid concentrations, mean (HepG2 cell line; [6]) [%] | Viability (%) at different lipid concentrations, mean (HepG2 cell line; [7]) [%] | Viability (%) at different lipid concentrations, mean (HepG2 cell line; [8]) [%] | IC50 (HepG2 cell line; resazurin) [µM] | Viability (%) at different lipid concentrations, mean (HepG2 cell line; human, 48 h, 25 μM) [%] |
| --- | --- | --- | --- | --- | --- | --- | --- | --- | --- | --- | --- | --- | --- |
| CCCCC/C=C\C/C=C\CCCCCCCCOC(CCCCCN(C)CC(O)CO)O[Si](C)(C)OCCCCCCCC/C=C\C/C=C\CCCCC (centres unmarked) [Example 66, (22Z,25Z)-4,12,12-trimethyl-10-(((9Z,12Z)-octadeca-9,12-dien-1-yl)oxy)-11,13-dioxa-4-aza-12-silahentriaconta-22,25-diene-1,2-diol] | 1.06E+05 | 1.14E+06 | 3.31E+06 | 100.5 | 97.9 | 97.2 | 96.5 | 94.2 | 95.5 | 86.0 | 42.6 | 164 |  |
| C#CCN(C)CCCCCCO[Si](C)(C)OC(CCCCCCC/C=C\C/C=C\CCCCC)OCCCCCCCC/C=C\C/C=C\CCCCC (centres unmarked) [Example 67, (20Z,23Z)-10-((8Z,11Z)-heptadeca-8,11-dien-1-yl)-N,8,8-trimethyl-N-(prop-2-yn-1-yl)-7,9,11-trioxa-8-silanonacosa-20,23-dien-1-amine] | 2.42E+04 | 4.02E+05 | 1.79E+06 | 100.2 | 97.1 | 99.5 | 95.6 | 92.6 | 24.8 | 3.0 | 1.7 |  |  |
| CCCCC/C=C\C/C=C\CCCCCCCCOC(CCCCCCC/C=C\C/C=C\CCCCC)O[Si](C)(C)OCCCCCCN(C)Cc1cn(C2[C@H](O)O[C@H](CO)[C@@H](O)[C@@H]2O)nn1 (stereo partly drawn) [Example 68, (4R,5S,6R)-3-(4-((22Z,25Z)-12-((8Z,11Z)-heptadeca-8,11-dien-1-yl)-2,10,10-trimethyl-9,11,13-trioxa-2-aza-10-silahentriaconta-22,25-dien-1-yl)-1H-1,2,3-triazol-1-yl)-6-(hydroxymethyl)tetrahydro-2H-pyran-2,4,5-triol] | 2.74E+02 | 1.30E+03 | 7.84E+03 | 99.4 | 97.7 | 107.3 | 120.2 | 117.6 | 103.6 | 68.1 | 12.3 | 461 |  |
| CCCCC/C=C\C/C=C\CCCCCCCCOC(CCCCCCC/C=C\C/C=C\CCCCC)O[Si](C)(C)OCCCCCCN(CCO)CCN(CCO)CCCCCCO[Si](C)(C)OC(CCCCCCC/C=C\C/C=C\CCCCC)OCCCCCCCC/C=C\C/C=C\CCCCC (centres unmarked) [Example 71, (26Z,29Z)-16-((8Z,11Z)-heptadeca-8,11-dien-1-yl)-3-((20Z,23Z)-10-((8Z,11Z)-heptadeca-8,11-dien-1-yl)-8,8-dimethyl-7,9,11-trioxa-8-silanonacosa-20,23-dien-1-yl)-6-(2-hydroxyethyl)-14,14-dimethyl-13,15,17-trioxa-3,6-diaza-14-silapentatriaconta-26,29-dien-1-ol] | 3.24E+04 | 9.78E+05 | 5.19E+06 | 102.71 | 102.5 | 106.2 | 107.61 | 93.09 | 72.87 | 39.19 | 9.92 | 321 |  |
| CCCCCCCC/C=C\CCCCCCCC(OCC(CCCCCCCC)SCCCCC)O[Si](C)(C)OCCCCCCN(CCO)CCO (centres unmarked) [Example 72, (Z)-13-(heptadec-8-en-1-yl)-3-(2-hydroxyethyl)-11,11-dimethyl-16-octyl-10,12,14-trioxa-17-thia-3-aza-11-siladocosan-1-ol] | 2.05E+03 | 8.79E+04 | 3.60E+05 | 104.3 | 94.1 | 102.5 | 101.6 | 100.3 | 96.6 | 110.6 | 103.0 | > 800 |  |
| CCCCCCCC/C=C\CCCCCCCC(OCCCCCCCCCCCC1CCCCC1)O[Si](C)(C)OCCCCCCN(CCO)CCO (centres unmarked) [Example 74, (Z)-25-cyclohexyl-13-(heptadec-8-en-1-yl)-3-(2-hydroxyethyl)-11,11-dimethyl-10,12,14-trioxa-3-aza-11-silapentacosan-1-ol] | 2.47E+03 | 3.87E+04 | 1.11E+05 | 101.5 | 100.8 |  | 112.5 | 121.9 | 117.3 | 103.1 | 93.8 | > 800 | 107.8 |
| CCCCCCCC/C=C\CCCCCCCC(OCCC(C)CCCC(C)CCCC(C)CCCC(C)C)O[Si](C)(C)OCCCCCCN(CCO)CCO (centres unmarked) [Example 75, (Z)-13-(heptadec-8-en-1-yl)-3-(2-hydroxyethyl)-11,11,17,21,25,29-hexamethyl-10,12,14-trioxa-3-aza-11-silatriacontan-1-ol] | 1.68E+03 | 2.82E+04 | 1.07E+05 | 110.3 | 109.2 | 105.7 | 104.5 | 102.8 | 112.9 | 102.4 | 90.2 | > 800 |  |
| CCCCCCCC/C=C\CCCCCCCC(OCCCCCCCCCCCCCCC(C)C)O[Si](C)(C)OCCCCCCN(CCO)CCO (centres unmarked) [Example 76, (Z)-13-(heptadec-8-en-1-yl)-3-(2-hydroxyethyl)-11,11,29-trimethyl-10,12,14-trioxa-3-aza-11-silatriacontan-1-ol] | 3.30E+03 | 6.71E+04 | 3.34E+05 | 101.9 | 100.5 | 98.5 | 100.8 | 112.3 | 103.8 | 77.7 | 70.0 | > 800 |  |
